# Data: US7915291B2, “Hepatitis C virus inhibitors” (Bristol-Myers Squibb Company, priority 2002, dated 2011)
# Like-named read-outs stand apart in the source and are kept apart here.
# Key:
# [1] = molecular target: HCV NS3/4A protease complex, BMS strain (UniProt P27958, C1454S/C1711G, species not given/STRAIN_BMS); assay: Recombinant HCV NS3/4A protease complex FRET peptide assay (BMS strain); assay type: biochemical, HCV genotype 1a
# Outline: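 Recombinant BMS-strain NS3/4A (His-tagged NS4A with three-lysine tail, E. coli) at 2-3 nM preincubated 1 min with compound, then 2 μM ester-linked NS4A/NS4B-based FRET peptide added. Fluorescence followed in real time ~15 min at 25° C. Percent inhibition from slope of linear fluorescence change versus no-compound control.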
# [2] = tested on: HCV replicon in Huh7 cells; assay: HCV replicon cell-based assay; design: species or system HCV strain 1B; settings: Hepatitis C virus, Huh-7; HCV replicon, Huh7 cells; read-out: EC50 range
# [3] = NS3/4A BMS strain; read-out: IC50 range
# [4] = read-out: IC50 range; NS3/4A BMS strain
Structure (SMILES),"IC50 [1, 3]",EC50 [2],"IC50 [1, 4]"
C=C[C@@H]1C[C@]1(NC(=O)[C@@H]1C[C@@H](Oc2nc(-c3ncc(OC)o3)cc3cc(OC)ccc23)CN1C(=O)[C@@H](NC(=O)OC(C)(C)C)C(C)(C)C)C(=O)NS(=O)(=O)C1CC1 [Compound 39],< 100 nM,< 100 nM,
C=C[C@@H]1C[C@]1(NC(=O)[C@@H]1C[C@@H](Oc2nc(Cl)cc3cc(OC)ccc23)CN1C(=O)[C@@H](NC(=O)OC(C)(C)C)C(C)(C)C)C(=O)NS(=O)(=O)C1CC1 [Compound 40],< 100 nM,100 to 1000 nM,
C=C[C@@H]1C[C@]1(NC(=O)[C@@H]1C[C@@H](Oc2nc(-c3ccoc3)cc3cc(OC)ccc23)CN1C(=O)[C@@H](NC(=O)OC(C)(C)C)C(C)(C)C)C(=O)NS(=O)(=O)C1CC1 [Compound 41],< 100 nM,< 100 nM,
C=C[C@@H]1C[C@]1(NC(=O)[C@@H]1C[C@@H](Oc2nccc3cc(OCC)ccc23)CN1C(=O)[C@@H](NC(=O)OC(C)(C)C)C(C)(C)C)C(=O)NS(=O)(=O)C1CC1 [Compound 42],< 100 nM,< 100 nM,
C=C[C@@H]1C[C@]1(NC(=O)C1CC(Oc2nc(-c3ccccc3)nc3ccccc23)CN1C(=O)[C@@H](NC(=O)OC(C)(C)C)C(C)(C)C)C(=O)NS(=O)(=O)C1CC1 (stereo partly drawn) [Compound 47],< 100 nM,100 to 1000 nM,
C=C[C@@H]1C[C@]1(NC(=O)C1C[C@@H](Oc2nc(-c3ccccc3)nc3ccc(OC)cc23)CN1C(=O)[C@@H](N)C(C)(C)C)C(=O)NS(=O)(=O)C1CC1 (stereo partly drawn) [Compound 50],100 to 1000 nM,1000 to 10000 nM,
C=C[C@@H]1C[C@]1(NC(=O)[C@@H]1C[C@@H](Nc2nc(-c3ccccc3)cs2)CN1C(=O)[C@@H](NC(=O)OC(C)(C)C)C(C)(C)C)C(=O)NS(=O)(=O)C1CC1 [Compound 53],100 to 1000 nM,1000 to 10000 nM,
C=C[C@@H]1C[C@]1(NC(=O)[C@@H]1CC(Oc2nccc3cc(OC)ccc23)CN1C(=O)[C@@H](NC(=O)C1CCCC1)C(C)(C)C)C(=O)NS(=O)(=O)C1CC1 (stereo partly drawn) [Compound 56],< 100 nM,< 100 nM,
C=C[C@@H]1C[C@]1(NC(=O)[C@@H]1CC(Oc2nccc3cc(OC)ccc23)CN1C(=O)[C@@H](NC(=O)C(CC)CC)C(C)(C)C)C(=O)NS(=O)(=O)C1CC1 (stereo partly drawn) [Compound 57],< 100 nM,100 to 1000 nM,
C=C[C@@H]1CC1(NC(=O)[C@@H]1CC(Oc2nccc3cc(OC)ccc23)CN1C(=O)[C@@H](NC(=O)CC1CC1)C(C)(C)C)C(=O)NS(=O)(=O)C1CC1 (stereo partly drawn) [Compound 58],,< 100 nM,< 100 nM
C=C[C@@H]1C[C@]1(NC(=O)[C@@H]1CC(Oc2nccc3cc(OC)ccc23)CN1C(=O)[C@@H](NC(=O)COC)C(C)(C)C)C(=O)NS(=O)(=O)C1CC1 (stereo partly drawn) [Compound 59],< 100 nM,100 to 1000 nM,
C=C[C@@H]1CC1(NC(=O)[C@@H]1CC(Oc2nccc3cc(OC)ccc23)CN1C(=O)[C@@H](NC(=O)CO[C@H]1C[C@@H](C)CC[C@@H]1C(C)C)C(C)(C)C)C(=O)NS(=O)(=O)C1CC1 (stereo partly drawn) [Compound 60],< 100 nM,1000 to 10000 nM,
C=C[C@@H]1CC1(NC(=O)[C@@H]1CC(Oc2nccc3cc(OC)ccc23)CN1C(=O)[C@@H](NC(=O)CO[C@@H]1C[C@H](C)CC[C@H]1C(C)C)C(C)(C)C)C(=O)NS(=O)(=O)C1CC1 (stereo partly drawn) [Compound 61],100 to 1000 nM,1000 to 10000 nM,
C=C[C@@H]1C[C@]1(NC(=O)[C@@H]1CC(Oc2nccc3cc(OC)ccc23)CN1C(=O)[C@@H](NC(=O)C1C2CC1C2)C(C)(C)C)C(=O)NS(=O)(=O)C1CC1 (stereo partly drawn) [Compound 62],< 100 nM,< 100 nM,
C=C[C@@H]1C[C@]1(NC(=O)[C@@H]1CC(Oc2nccc3cc(OC)ccc23)CN1C(=O)[C@@H](NC(=O)c1cnccn1)C(C)(C)C)C(=O)NS(=O)(=O)C1CC1 (stereo partly drawn) [Compound 63],< 100 nM,1000 to 10000 nM,
C=C[C@@H]1CC1(NC(=O)[C@@H]1CC(Oc2nccc3cc(OC)ccc23)CN1C(=O)[C@@H](NC(=O)OCc1ccccc1)C(C)(C)C)C(=O)NS(=O)(=O)C1CC1 (stereo partly drawn) [Compound 64],,< 100 nM,< 100 nM
C=C[C@@H]1CC1(NC(=O)[C@@H]1CC(Oc2nccc3cc(OC)ccc23)CN1C(=O)[C@@H](NC(=O)O[C@H]1C[C@@H](C)CC[C@@H]1C(C)C)C(C)(C)C)C(=O)NS(=O)(=O)C1CC1 (stereo partly drawn) [Compound 65],< 100 nM,100 to 1000 nM,
C=C[C@@H]1CC1(NC(=O)[C@@H]1CC(Oc2nccc3cc(OC)ccc23)CN1C(=O)[C@@H](NC(=O)O[C@@H]1C[C@H](C)CC[C@H]1C(C)C)C(C)(C)C)C(=O)NS(=O)(=O)C1CC1 (stereo partly drawn) [Compound 66],< 100 nM,100 to 1000 nM,
C=C[C@@H]1C[C@]1(NC(=O)[C@@H]1CC(Oc2nccc3cc(OC)ccc23)CN1C(=O)[C@@H](NC(=O)OC(C)(C)CC)C(C)(C)C)C(=O)NS(=O)(=O)C1CC1 (stereo partly drawn) [Compound 67],< 100 nM,< 100 nM,
C=C[C@@H]1C[C@]1(NC(=O)[C@@H]1CC(Oc2nccc3cc(OC)ccc23)CN1C(=O)[C@@H](NC(=O)OC(C)(C)C(Cl)(Cl)Cl)C(C)(C)C)C(=O)NS(=O)(=O)C1CC1 (stereo partly drawn) [Compound 68],< 100 nM,< 100 nM,

Structure (SMILES),"IC50 [1, 3]",EC50 [2],"IC50 [1, 4]"
C=C[C@@H]1CC1(NC(=O)[C@@H]1CC(Oc2nccc3cc(OC)ccc23)CN1C(=O)[C@@H](NC(=O)OC1(C)CCCC1)C(C)(C)C)C(=O)NS(=O)(=O)C1CC1 (stereo partly drawn) [Compound 69],,< 100 nM,< 100 nM
C=C[C@@H]1CC1(NC(=O)[C@@H]1CC(Oc2nccc3cc(OC)ccc23)CN1C(=O)[C@@H](NC(=O)OC1CCCC1)C(C)(C)C)C(=O)NS(=O)(=O)C1CC1 (stereo partly drawn) [Compound 70],< 100 nM,< 100 nM,
C=C[C@@H]1C[C@]1(NC(=O)[C@@H]1CC(Oc2nccc3cc(OC)ccc23)CN1C(=O)[C@@H](NC(=O)OC1CCC1)C(C)(C)C)C(=O)NS(=O)(=O)C1CC1 (stereo partly drawn) [Compound 71],< 100 nM,< 100 nM,
C=C[C@@H]1C[C@]1(NC(=O)[C@@H]1CC(Oc2nccc3cc(OC)ccc23)CN1C(=O)[C@@H](NC(=O)OC(C)(C)c1ccccc1)C(C)(C)C)C(=O)NS(=O)(=O)C1CC1 (stereo partly drawn) [Compound 72],< 100 nM,100 to 1000 nM,
C=C[C@@H]1C[C@]1(NC(=O)[C@@H]1CC(Oc2nccc3cc(OC)ccc23)CN1C(=O)[C@@H](NC(=O)OC(C)(C)c1ccc(C(F)(F)F)cc1)C(C)(C)C)C(=O)NS(=O)(=O)C1CC1 (stereo partly drawn) [Compound 73],< 100 nM,100 to 1000 nM,
C=C[C@@H]1CC1(NC(=O)[C@@H]1CC(Oc2nccc3cc(OC)ccc23)CN1C(=O)[C@@H](NC(=O)NC1CCCC1)C(C)(C)C)C(=O)NS(=O)(=O)C1CC1 (stereo partly drawn) [Compound 75],< 100 nM,< 100 nM,
C=C[C@@H]1CC1(NC(=O)[C@@H]1CC(Oc2nccc3cc(OC)ccc23)CN1C(=O)[C@@H](NC(=O)NC(C)(C)CC)C(C)(C)C)C(=O)NS(=O)(=O)C1CC1 (stereo partly drawn) [Compound 76],,< 100 nM,< 100 nM
C=C[C@@H]1C[C@]1(NC(=O)[C@@H]1CC(Oc2nccc3cc(OC)ccc23)CN1C(=O)[C@@H](NC(=O)N(C)C(C)(C)C)C(C)(C)C)C(=O)NS(=O)(=O)C1CC1 (stereo partly drawn) [Compound 77],< 100 nM,100 to 1000 nM,
C=C[C@@H]1C[C@]1(NC(=O)[C@@H]1CC(Oc2nccc3cc(OC)ccc23)CN1C(=O)[C@@H](NC(=O)N(C)OC)C(C)(C)C)C(=O)NS(=O)(=O)C1CC1 (stereo partly drawn) [Compound 78],< 100 nM,1000 to 10000 nM,
C=C[C@@H]1C[C@]1(NC(=O)[C@@H]1CC(Oc2nccc3cc(OC)ccc23)CN1C(=O)[C@@H](NC(=O)N(CC)CC)C(C)(C)C)C(=O)NS(=O)(=O)C1CC1 (stereo partly drawn) [Compound 79],< 100 nM,100 to 1000 nM,
C=C[C@@H]1C[C@]1(NC(=O)[C@@H]1CC(Oc2nccc3cc(OC)ccc23)CN1C(=O)[C@@H](NC(N)=O)C(C)(C)C)C(=O)NS(=O)(=O)C1CC1 (stereo partly drawn) [Compound 80],< 100 nM,1000 to 10000 nM,
C=C[C@@H]1C[C@]1(NC(=O)[C@@H]1CC(Oc2nccc3cc(OC)ccc23)CN1C(=O)[C@@H](NC(=O)NC(C)(C)CC(C)(C)C)C(C)(C)C)C(=O)NS(=O)(=O)C1CC1 (stereo partly drawn) [Compound 81],< 100 nM,100 to 1000 nM,
C=C[C@@H]1C[C@]1(NC(=O)[C@@H]1CC(Oc2nccc3cc(OC)ccc23)CN1C(=O)[C@@H](NC(=O)NC(C)(C)Cc1ccc(F)cc1)C(C)(C)C)C(=O)NS(=O)(=O)C1CC1 (stereo partly drawn) [Compound 82],< 100 nM,100 to 1000 nM,
C=C[C@@H]1C[C@]1(NC(=O)[C@@H]1CC(Oc2nccc3cc(OC)ccc23)CN1C(=O)[C@@H](NC(=O)NC(C)(C)c1ccccc1)C(C)(C)C)C(=O)NS(=O)(=O)C1CC1 (stereo partly drawn) [Compound 83],< 100 nM,100 to 1000 nM,
C=C[C@@H]1C[C@]1(NC(=O)[C@@H]1CC(Oc2nccc3cc(OC)ccc23)CN1C(=O)C([C@@H](C)CC)N(C)C(=O)OC(C)(C)C)C(=O)NS(=O)(=O)C1CC1 (stereo partly drawn) [Compound 84],< 100 nM,100 to 1000 nM,
C=C[C@@H]1C[C@]1(NC(=O)[C@@H]1CC(Oc2nccc3cc(OC)ccc23)CN1C(=O)[C@H](C(C)C)N(C)C(=O)OC(C)(C)C)C(=O)NS(=O)(=O)C1CC1 (stereo partly drawn) [Compound 85],100 to 1000 nM,1000 to 10000 nM,
C=C[C@@H]1C[C@]1(NC(=O)[C@@H]1CC(Oc2nccc3cc(OC)ccc23)CN1C(=O)[C@H](CC(C)C)N(C)C(=O)OC(C)(C)C)C(=O)NS(=O)(=O)C1CC1 (stereo partly drawn) [Compound 86],1000 to 10000 nM,10000 to 100000 nM,
C=C[C@@H]1C[C@]1(NC(=O)[C@@H]1CC(Oc2nccc3cc(OC)ccc23)CN1C(=O)[C@H](CCCC)N(C)C(=O)OC(C)(C)C)C(=O)NS(=O)(=O)C1CC1 (stereo partly drawn) [Compound 87],1000 to 10000 nM,10000 to 100000 nM,
C=C[C@@H]1C[C@]1(NC(=O)[C@@H]1CC(Oc2nccc3cc(OC)ccc23)CN1C(=O)[C@H](CCC)N(C)C(=O)OC(C)(C)C)C(=O)NS(=O)(=O)C1CC1 (stereo partly drawn) [Compound 88],1000 to 10000 nM,10000 to 100000 nM,
